According to patent publication US20230374015A1, “INHIBITORS OF FIBROBLAST GROWTH FACTOR RECEPTOR KINASES” (Kinnate Biopharma Inc., priority 2020, published 2023):

What follows are compounds tested against FGFR2 (Homo sapiens, UniProt P21802) (assay: FGFR2 Kinase Protocol - Condition 2 (Reaction Biology HotSpot radiometric kinase assay, no preincubation)). Settings: poly[Glu:Tyr] (4:1) 0.2 mg/ml, ATP 100 microM, 2 hr room temperature.
Assay type: biochemical
Outline: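 Radiometric HotSpot format: FGFR2 (wildtype or V564F) with poly[Glu:Tyr] (4:1) at 0.2 mg/ml in HEPES pH 7.5 buffer with 1% DMSO; ATP plus [γ33P]ATP at 100 µM total, added without preincubation. Reactions ran 2 hr at room temperature, then filter-bound. IC50 from 10-dose, 3-fold series versus DMSO control.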

Sequence of FGFR2 (P21802 22-821): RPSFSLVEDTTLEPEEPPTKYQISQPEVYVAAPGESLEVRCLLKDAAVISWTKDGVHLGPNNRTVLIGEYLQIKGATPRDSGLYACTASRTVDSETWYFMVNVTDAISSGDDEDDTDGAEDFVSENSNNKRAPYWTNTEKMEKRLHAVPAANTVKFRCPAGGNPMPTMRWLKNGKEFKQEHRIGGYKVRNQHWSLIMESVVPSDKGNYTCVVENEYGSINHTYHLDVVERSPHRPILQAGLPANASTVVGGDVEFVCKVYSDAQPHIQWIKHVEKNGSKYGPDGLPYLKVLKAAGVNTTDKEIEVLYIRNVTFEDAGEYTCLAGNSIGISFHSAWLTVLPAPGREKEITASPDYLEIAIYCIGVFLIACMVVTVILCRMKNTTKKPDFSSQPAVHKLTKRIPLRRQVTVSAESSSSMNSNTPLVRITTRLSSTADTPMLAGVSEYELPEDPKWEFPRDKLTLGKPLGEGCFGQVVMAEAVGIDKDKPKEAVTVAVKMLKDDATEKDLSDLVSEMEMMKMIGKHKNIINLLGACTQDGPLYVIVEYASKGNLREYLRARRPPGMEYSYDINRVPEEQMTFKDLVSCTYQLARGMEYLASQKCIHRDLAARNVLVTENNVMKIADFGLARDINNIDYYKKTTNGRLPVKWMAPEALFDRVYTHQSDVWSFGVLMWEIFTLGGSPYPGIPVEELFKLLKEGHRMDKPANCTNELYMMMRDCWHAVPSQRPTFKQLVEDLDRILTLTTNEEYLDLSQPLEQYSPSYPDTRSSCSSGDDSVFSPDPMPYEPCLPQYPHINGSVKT

IC50, ≤ 100 nM:
C=CC(=O)N1C[C@@H](n2cc(C#Cc3cc4ncn(C)c4cc3Cl)c3c(N)ncnc32)C[C@@H]1COC [Example 91, 1-[(2R,4S)-4-[4-Amino-5-[2-(6-chloro-1-methyl-1,3-benzodiazol-5-yl)ethynyl]pyrrolo[2,3-d]pyrimidin-7-yl]-2-(methoxymethyl)pyrrolidin-1-yl]prop-2-en-1-one]
C=CC(=O)N1C[C@@H](n2nc(C#Cc3cc4ncn(CC)c4cc3Cl)c3c(N)ncnc32)C[C@@H]1COC [Example 92, 1-[(2R,4S)-4-[4-Amino-3-[2-(6-chloro-1-ethyl-1,3-benzodiazol-5-yl)ethynyl]pyrazolo[3,4-d]pyrimidin-1-yl]-2-(methoxymethyl)pyrrolidin-1-yl]prop-2-en-1-one]
C=CC(=O)N1C[C@@H](n2cc(C#Cc3cc4ncn(CC)c4cc3Cl)c3c(N)ncnc32)C[C@@H]1COC [Example 93, 1-[(2R,4S)-4-[4-Amino-5-[2-(6-chloro-1-ethyl-1,3-benzodiazol-5-yl)ethynyl]pyrrolo[2,3-d]pyrimidin-7-yl]-2-(methoxymethyl)pyrrolidin-1-yl]prop-2-en-1-one]
C=CC(=O)N1C[C@@H](n2nc(C#Cc3c(F)cc4[nH]c(C)nc4c3F)c3c(N)ncnc32)C[C@@H]1COC [Example 94, 1-[(2R,4S)-4-[4-Amino-3-[2-(4,6-difluoro-2-methyl-1H-1,3-benzodiazol-5-yl)ethynyl]pyrazolo[3,4-d]pyrimidin-1-yl]-2-(methoxymethyl)pyrrolidin-1-yl]prop-2-en-1-one]
C=CC(=O)N1C[C@@H](n2nc(C#Cc3c(F)cc4nc(C)[nH]c4c3F)c3c(N)nccc32)C[C@@H]1COC [Example 95, 1-[(2R,4S)-4-[4-Amino-3-[2-(4,6-difluoro-2-methyl-1H-1,3-benzodiazol-5-yl)ethynyl]pyrazolo[4,3-c]pyridin-1-yl]-2-(methoxymethyl)pyrrolidin-1-yl]prop-2-en-1-one]
C=CC(=O)N1C[C@@H](n2nc(C#Cc3cc4nc(C)n(C)c4cc3Cl)c3c(N)ncnc32)C[C@@H]1COC [Example 96, 1-[(2R,4S)-4-[4-Amino-3-[2-(6-chloro-1,2-dimethyl-1,3-benzodiazol-5-yl)ethynyl]pyrazolo[3,4-d]pyrimidin-1-yl]-2-(methoxymethyl)pyrrolidin-1-yl]prop-2-en-1-one]
C=CC(=O)N1C[C@@H](n2nc(C#Cc3cc4nc(C)n(C)c4cc3Cl)c3c(N)nccc32)C[C@@H]1COC [Example 97, 1-[(2R,4S)-4-[4-Amino-3-[2-(6-chloro-1,2-dimethyl-1,3-benzodiazol-5-yl)ethynyl]pyrazolo[4,3-c]pyridin-1-yl]-2-(methoxymethyl)pyrrolidin-1-yl]prop-2-en-1-one]
C=CC(=O)N1C[C@@H](n2nc(C#Cc3cc4ncn(C)c4cc3Cl)c3c(N)nccc32)C[C@@H]1COC [Example 98, 1-[(2R,4S)-4-[4-Amino-3-[2-(6-chloro-1-methyl-1,3-benzodiazol-5-yl)ethynyl]pyrazolo[4,3-c]pyridin-1-yl]-2-(methoxymethyl)pyrrolidin-1-yl]prop-2-en-1-one]
C=CC(=O)N1C[C@@H](n2nc(C#Cc3cc4nc(C)[nH]c4cc3Cl)c3c(N)ncnc32)C[C@@H]1COC [Example 99, 1-[(2R,4S)-4-[4-Amino-3-[2-(6-chloro-2-methyl-1H-1,3-benzodiazol-5-yl)ethynyl]pyrazolo[3,4-d]pyrimidin-1-yl]-2-(methoxymethyl)pyrrolidin-1-yl]prop-2-en-1-one]
C=CC(=O)N1C[C@@H](n2nc(C#Cc3cc4nc(C)[nH]c4cc3Cl)c3c(N)nccc32)C[C@@H]1COC [Example 100, 1-[(2R,4S)-4-[4-Amino-3-[2-(6-chloro-2-methyl-1H-1,3-benzodiazol-5-yl)ethynyl]pyrazolo[4,3-c]pyridin-1-yl]-2-(methoxymethyl)pyrrolidin-1-yl]prop-2-en-1-one]
